These results are taken from US20080269237A1, “CARBAMIC ACID COMPOUNDS COMPRISING A PIPERAZINE LINKAGE AS HDAC INHIBITORS” (TOPOTARGET UK LIMITED, priority 2002, published 2008).

Series [1] relates to HDAC (HeLa cell extract). Description: Primary assay: deacetylase activity, HeLa cell extract as source of HDAC. It is filed as biochemical, human. The settings on record: for HDAC Inhibition HeLa, % @ 500 nM: 500 nM compound; for IC50: read-out: HDAC Inhibition (IC50 unless otherwise specified) HeLa; for HDAC Inhibition HeLa, % @ 100 nM: 100 nM compound. The procedure: Decreased activity indicates increased inhibition by the test compound.
Alternatively, the activity of the compounds as HDAC inhibitors was determined using a commercially available fluorescent assay kit: (Fluor de Lys™, BioMol Research Labs, Inc., Plymouth Meeting, USA).
Extensive comparative studies have shown that Primary Assay (1) and Primary Assay (2), discussed above, yield equivalent results. Primary Assay results reported herein are (a) exclusively from (1); (b) exclusively from (2); or (c) from both (1) and (2).
The HeLa cell extract was made from HeLa cells (ATCC Ref. No. CCL-2) by freeze-thawing three times in 60 mM TrisCl pH 8.0, 450 mM NaCl, 30% glycerol. Two cell volumes of extraction buffer were used, and particulate material was centrifuged out (20800 g, 4° C., 10 min). The supernatant extract having deacetylase activity was aliquoted and frozen for storage.
% activity={(S^C−B)/(S^o−B)}×100

Series [2] relates to JURKAT (human T-cell line). Put plainly: Secondary assay: cell proliferation inhibition WST-1, Jurkat. The following applies: 48 h, read-out: Cell Proliferation Inhibition WST-1 (IC50 unless otherwise specified) Jurkat. It is filed as cell-based. In general terms: Tetrazolium dyes change colour on reduction, which living cells bring about.

As usually defined, the melting point is the temperature of the solid-liquid transition. `O=C(CCCCCC(=O)N1CCN(C(c2ccccc2)c2ccccc2)CC1)NO` [PX117403, 7-(4-Benzhydryl-piperazin-1-yl)-7-oxo-heptanoic acid hydroxyamide] came in with a melting point of 157 to 159 °C. The “HDAC Inhibition HeLa, % @ 500 nM” value in series [1] turned out to be 28% @ 500 nM. As for `O=C(CCCCCC(=O)N1CCN(c2ccccc2)CC1)NO` [PX117404, 7-Oxo-7-(4-phenyl-piperazin-1-yl)-heptanoic acid hydroxyamide], the melting point is 107 to 109 °C. The “HDAC Inhibition HeLa, % @ 500 nM” value in series [1] came to 35% @ 500 nM. `O=C(CCCCCCC(=O)N1CCN(c2ccccc2Cl)CC1)NO` [PX118791, 8-[4-(2-Chloro-phenyl)-piperazin-1-yl]-8-oxo octanoic acid hydroxyamide] returned a melting point of 131 to 132 °C. Also, the IC50 in series [1] came to 36 nM. The corresponding values for `O=C(CCCCCCC(=O)N1CCN(c2cccc(Cl)c2)CC1)NO` [PX118792, 8-[4-(3-Chloro-phenyl)-piperazin-1-yl]-8-oxo octanoic acid hydroxyamide] are 122 to 124 °C and 34 nM. On to `O=C(CCCCCC(=O)N1CCN(c2ccccc2Cl)CC1)NO` [PX118793, 7-[4-(2-Chloro-phenyl)-piperazin-1-yl]-7-oxo heptanoic acid hydroxyamide], for which the melting point lay within 128 to 130 °C. Moreover, the IC50 in series [1] was 188 nM. The corresponding values for `O=C(CCCCCC(=O)N1CCN(c2cccc(Cl)c2)CC1)NO` [PX118794, 7-[4-(3-Chloro-phenyl)-piperazin-1-yl]-7-oxo heptanoic acid hydroxyamide] are 120 to 122 °C and 74 nM. As to `O=C(/C=C/c1cccc(S(=O)(=O)N2CCN(c3ccccn3)CC2)c1)NO` [PX118807, (E)-N-Hydroxy-3-{3-[(4-(2-pyridinyl)-1-piperazinyl)sulfonyl]phenyl}-2-propenamide], in series [1], the “HDAC Inhibition HeLa, % @ 100 nM” value was found to be 60% @ 100 nM. The compound `COc1ccccc1N1CCN(S(=O)(=O)c2cccc(/C=C/C(=O)NO)c2)CC1` [PX118810, (E)-N-Hydroxy-3-{3-[(4-(2-methoxyphenyl)-1-piperazinyl)sulfonyl]phenyl}-2-propenamide] registered a melting point of 190 °C. In addition, the IC50 in series [1] is 46 nM. Taken in the same sequence, the figures for `O=C(/C=C/c1cccc(S(=O)(=O)N2CCN(c3ccccc3Cl)CC2)c1)NO` [PX118811, (E)-N-Hydroxy-3-{3-[(4-(2-chlorophenyl)-1-piperazinyl)sulfonyl]phenyl}-2-propenamide] were 183 °C and 42 nM. The corresponding values for `O=C(/C=C/c1cccc(S(=O)(=O)N2CCN(c3cccc(Cl)c3)CC2)c1)NO` [PX118812, (E)-N-Hydroxy-3-{3-[(4-(3-chlorophenyl)-1-piperazinyl)sulfonyl]phenyl}-2-propenamide] are 201 °C and 26 nM. Consider `O=C(CCCCCCC(=O)N1CCN(C(=O)c2ccc3ccccc3c2)CC1)NO` [PX118830, 8-[4-(Naphthalene-2-carbonyl)-piperazin-1-yl]-8-oxo octanoic acid hydroxyamide], for which the melting point lay within 133.5 to 134.5 °C. Also, in series [1], the IC50 is 133 nM. In turn, `O=C(CCCCCCC(=O)N1CCN(C(=O)c2ccccc2)CC1)NO` [PX118831, 8-(4-Benzoyl-piperazin-1-yl)-8-oxo octanoic acid hydroxyamide] came in with a melting point of 100 to 101 °C. Moreover, in series [1], the IC50 was 194 nM. `CN(C)c1ccc(C(=O)N2CCN(C(=O)CCCCCCC(=O)NO)CC2)cc1` [PX118832] returned a melting point of 90 to 92 °C. Moreover, the IC50 in series [1] is 212 nM. Take `N#Cc1ccc(C(=O)N2CCN(C(=O)CCCCCCC(=O)NO)CC2)cc1` [PX118844, 8-[4-(4-Cyanobenzoyl)-piperazin-1-yl]-8-oxo octanoic acid hydroxyamide]: the melting point fell in the range of 150 to 150.5 °C. The IC50 in series [1] is 286 nM. For the compound `COc1ccc(N2CCN(C(=O)CCCCCCC(=O)NO)CC2)cc1` [PX118846, 8-[4-(4-Methoxyphenyl)-piperazin-1-yl]-8-oxo octanoic acid hydroxyamide], the melting point was in the range of 149 to 150 °C. In addition, the IC50 in series [1] stood at 3.4 nM. As for `COc1cccc(N2CCN(C(=O)CCCCCCC(=O)NO)CC2)c1` [PX118847, 8-[4-(3-Methoxyphenyl)-piperazin-1-yl]-8-oxo octanoic acid hydroxyamide], the melting point is 122 to 122.5 °C. Moreover, the IC50 in series [1] turned out to be 31 nM. `CN(C)c1ccc(CC(=O)N2CCN(C(=O)CCCCCCC(=O)NO)CC2)cc1` [PX118848, 8-(4-{2-[4-(Dimethylamino)phenyl]acetyl}-1-piperazinyl)-N-hydroxy-8-oxooctanamide] had a melting point of 77 to 79 °C. Moreover, the “HDAC Inhibition HeLa, % @ 100 nM” value in series [1] was determined as 44% @ 100 nM. Take `O=C(CCCCCCC(=O)N1CCN(c2ccc([N+](=O)[O-])cc2)CC1)NO` [PX118849, N-Hydroxy-8-[4-(4-nitrophenyl)-1-piperazinyl]-8-oxooctanamide]: the melting point lay within 125 to 127 °C. The IC50 in series [1] stood at 26 nM. `O=C(CCCCCCC(=O)N1CCN(c2ncccn2)CC1)NO` [PX118850, N-Hydroxy-8-oxo-8-[4-(2-pyrimidinyl)-1-piperazinyl]octanamide] showed a melting point of 132 to 133.5 °C. Also, the IC50 in series [1] is 70 nM. With `CN(C)c1ccc(CCN2CCN(S(=O)(=O)c3cccc(/C=C/C(=O)NO)c3)CC2)cc1` [PX118951, (E)-3-[3-({4-[4-(Dimethylamino)phenethyl]-1-piperazinyl}sulfonyl)phenyl]-N-hydroxy-2-propenamide], the melting point was 189 °C.

In turn, `O=C(/C=C/c1ccc(S(=O)(=O)N2CCN(C(c3ccc(F)cc3)c3ccc(F)cc3)CC2)cc1)NO` [PX118965, (E)-3-[4-({4-[Bis(4-fluorophenyl)methyl]-1-piperazinyl}sulfonyl)phenyl]-N-hydroxy-2-propenamide] had a melting point of 125 to 126 °C. On the same count and under the same terms, the result for `O=C(CCCCCCC(=O)N1CCN(C(=O)Cc2csc3ccccc23)CC1)NO` [PX118967, 8-{4-[2-(1-Benzothiophen-3-yl)acetyl]-1-piperazinyl}-N-hydroxy-8-oxooctanamide] reads 140 to 141 °C. Compound `O=C(CCCCCC(=O)N1CCN(C(=O)CCc2c[nH]c3ccccc23)CC1)NO` [PX118968, N-Hydroxy-7-{4-[3-(1H-indol-3-yl)propanoyl]-1-piperazinyl}-7-oxoheptanamide] showed a melting point of 152.5 to 153.5 °C. As for `O=C(CCCCCC(=O)N1CCN(C(=O)c2c[nH]c3ccccc23)CC1)NO` [PX118969, N-Hydroxy-7-[4-(1H-indol-3-ylcarbonyl)-1-piperazinyl]-7-oxoheptanamide], the melting point fell in the range of 86 to 88 °C.

For `O=C(CCCCCC(=O)N1CCN(CCCc2c[nH]c3ccccc23)CC1)NO` [PX118970, N-Hydroxy-7-{4-[3-(1H-indol-3-yl)propyl]-1-piperazinyl}-7-oxoheptanamide], the melting point is 165 to 166 °C. In the case of `O=C(/C=C/c1cccc(S(=O)(=O)N2CCN(c3ccc(Cl)c(Cl)c3)CC2)c1)NO` [PX118971, (E)-3-(3-{[4-(3,4-Dichlorophenyl)-1-piperazinyl]sulfonyl}phenyl)-N-hydroxy-2-propenamide], the melting point is 193 °C. The compound `O=C(/C=C/c1cccc(S(=O)(=O)N2CCN(c3ccc(Cl)cc3)CC2)c1)NO` [PX118972, (E)-3-(3-{[4-(4-Chlorophenyl)-1-piperazinyl]sulfonyl}phenyl)-N-hydroxy-2-propenamide] gave a melting point of 215 °C.

Consider `O=C(CCCCCC(=O)N1CCN(Cc2c[nH]c3ccccc23)CC1)NO` [PX118978, N-Hydroxy-7-[4-(1H-indol-3-ylmethyl)-1-piperazinyl]-7-oxoheptanamide], for which the melting point was in the range of 65 to 67 °C. `O=C(CCCCCC(=O)N1CCN(c2ccc(Cl)c(Cl)c2)CC1)NO` [PX118989, 7-[4-(3,4-Dichlorophenyl)-1-piperazinyl]-N-hydroxy-7-oxoheptanamide] had a melting point of 125 to 126 °C. `O=C(CCCCCC(=O)N1CCN(c2ccc(F)cc2)CC1)NO` [PX118990, 7-[4-(4-Fluorophenyl)-1-piperazinyl]-N-hydroxy-7-oxoheptanamide] displayed a melting point of 119 to 120 °C. The same measure, in the same setting: to `O=C(CCCCCC(=O)N1CCN(c2ccc(Cl)cc2)CC1)NO` [PX118991, 7-[4-(4-Chlorophenyl)-1-piperazinyl]-N-hydroxy-7-oxoheptanamide] belongs 119 to 121 °C; to `Cc1ccc(N2CCN(C(=O)CCCCCC(=O)NO)CC2)cc1C` [PX118994, 7-[4-(3,4-Dimethylphenyl)-1-piperazinyl]-N-hydroxy-7-oxoheptanamide], 119.5 to 120.5 °C. Turning to oxamflatin [reference compound], in series [2], the IC50 was found to be 170 nM.
